These results are taken from patent publication US6479435B1, “Diaryl ethers and processes for their preparation and herbicidal and desiccant compositions containing them” (ISK Americas Incorporated, priority 1997, dated 2002).

Common to all, as to assay type: in vivo
The subject of data set [1] is Johnsongrass (Sorghum halepense, SORHA). Description: Pre-emerge greenhouse herbicide test, phytotoxicity rating. Particulars: 1000 g ai/ha, 14 days after application, rating scale 0-100. An excerpt:
(§1) A standard greenhouse herbicide activity screening system was used to evaluate the herbicidal efficacy and crop safety of these test compounds. Six broadleaf weed species including redroot pigweed (Amaranthus retroflexus, AMARE), velvetleaf (Abutilon theophrasti, ABUTH), sicklepod (Cassia obtusifolia, CASOB), ivyleaf morningglory (Ipomoea hederacea, IPOHE), lambsquarters (Chenopodium album, CHEAL) and common ragweed (Ambrosia artemisiifolia L., AMBEL) were used as test species. Four grass weed species including green foxtail (Setaria viridis, SETVI), barnyardgrass (Echinochloa crusgalli, ECHCG), Johnsongrass (Sorghum halepense, SORHA), and large crabgrass (Digitaria sanguinalis, DIGSA) were also used. In addition, three crop species, field corn (Zea mays L., var. Dekalb 535, CORN), soybean (Glycine max L., var. Pella 86, SOY), and upland rice (Oryza sp., var.Tebonnet, RICE) were included.
(§2) All plants were grown in 10 cm square plastic pots which were filled with a sandy loam soil mix. For preemerge tests, seeds were planted one day prior to application of the test compounds. Immediately after application, test units of the pre-emerge applications were watered at the soil surface to incorporate the test materials. Subsequently, these test units were bottom-watered.
(§3) All test compounds were dissolved in acetone and applied to the test units in a volume of 187 l/ha. Test materials were applied at rates ranging from 125 g ai/ha to 1000 g ai/ha using a track sprayer equipped with a TJ8001E even flow flat fan spray nozzle. Plants were arranged on a shelf so that the top of the canopy (post-emerge) or top of the soil surface (pre-emerge) was 40-45 cm below the nozzle. Pressurized air was used to force the test solution through the nozzle as it was mechanically advanced (via electrically driven chain drive) over the top of all test plants/pots. This application simulates a typical commercial field herbicide application.
(§4) At 14 days after application of the test materials, phytotoxicity ratings were recorded. A rating scale of 0-100 was used as previously described in Research Methods in Weed Science, 2nd edition, B. Truelove, Ed., Southern Weed Science Society, Auburn University, Auburn, Ala., 1977. Briefly, “0” corresponds to no damage and “100” corresponds to complete death of all plants in the test unit. This scale was used both to determine efficacy against weed species and damage to crop species. Herbicide activity data for various compounds of this invention, which are shown by compound number in Tables 1-9, are shown in Tables 13 and 14.

The test system of data set [2] is barnyardgrass (Echinochloa crusgalli, ECHCG). The data set is described as above. The settings on record: 1000 g ai/ha, 14 days after application, rating scale 0-100.
Text: as §1, §2, §3, §4

Data set [3] deals with green foxtail (Setaria viridis, SETVI). Described as above. The settings on record: 1000 g ai/ha, 14 days after application, rating scale 0-100.
Text: as §1, §2, §3, §4

Data set [4] has as its system ivyleaf morningglory (Ipomoea hederacea, IPOHE). Described as above. The settings on record: 1000 g ai/ha, 14 days after application, rating scale 0-100.
Text: as §1, §2, §3, §4

The subject of data set [5] is lambsquarters (Chenopodium album, CHEAL). The description is as above. The settings on record: 1000 g ai/ha, 14 days after application, rating scale 0-100.
Text: as §1, §2, §3, §4

Data set [6] relates to large crabgrass (Digitaria sanguinalis, DIGSA). Described as above. Particulars: 1000 g ai/ha, 14 days after application, rating scale 0-100.
Text: as §1, §2, §3, §4

Data set [7] relates to redroot pigweed (Amaranthus retroflexus, AMARE). The description is as above. The settings on record: 1000 g ai/ha, 14 days after application, rating scale 0-100.
Text: as §1, §2, §3, §4

Data set [8] concerns sicklepod (Cassia obtusifolia, CASOB). The description is as above. The settings on record: 1000 g ai/ha, 14 days after application, rating scale 0-100.
Text: as §1, §2, §3, §4

For data set [9], the system named is velvetleaf (Abutilon theophrasti, ABUTH). The description is as above. The settings on record: 1000 g ai/ha, 14 days after application, rating scale 0-100.
Text: as §1, §2, §3, §4

The test system of data set [10] is field corn (Zea mays L., var. Dekalb 535, CORN). The data set is described as follows: Pre-emerge greenhouse test, crop damage rating. The settings on record: 1000 g ai/ha, 14 days after application, rating scale 0-100. In short, it runs like this: (§5)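 Seeds sown in sandy loam mix one day before track-sprayer application of compounds in acetone at 125–1000 g ai/ha (187 l/ha), then surface-watered to incorporate and bottom-watered. Visual rating 14 days after application on a 0–100 scale (0 = no damage, 100 = all plants dead).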

For data set [11], the system named is upland rice (Oryza sp., var.Tebonnet, RICE). The data set is described as follows: Pre-emerge greenhouse test, crop damage rating. Particulars: 1000 g ai/ha, 14 days after application, rating scale 0-100. In short, it runs like this:
as §5

In data set [12] the test system is soybean (Glycine max L., var. Pella 86, SOY). The data set is described as follows: Pre-emerge greenhouse test, crop damage rating. Particulars: 1000 g ai/ha, 14 days after application, rating scale 0-100. The method, boiled down: as §5
Data set [13] relates to Johnsongrass (Sorghum halepense, SORHA). Description: Post-emerge greenhouse herbicide test, phytotoxicity rating. Particulars: 1000 g al/ha, 14 days after application. In short, it runs like this: (§6)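 Compounds in acetone with 0.25% v/v non-ionic surfactant were track-sprayed at 187 l/ha over plants at the 2-3 leaf stage, at 63 to 1000 g ai/ha. Pots were bottom-watered. Injury was scored visually 14 days later on a 0-100 scale, where 0 is no damage and 100 is complete plant death.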

In data set [14] the test system is barnyardgrass (Echinochloa crusgalli, ECHCG). The description is as above. The settings on record: 1000 g al/ha, 14 days after application. The method, boiled down: as §6
The test system of data set [15] is green foxtail (Setaria viridis, SETVI). Described as above. Particulars: 1000 g al/ha, 14 days after application. In short, it runs like this:
as §6

The subject of data set [16] is ivyleaf morningglory (Ipomoea hederacea, IPOHE). The description is as above. The settings on record: 1000 g al/ha, 14 days after application. The method, boiled down:
as §6

The test system of data set [17] is lambsquarters (Chenopodium album, CHEAL). Described as above. Particulars: 1000 g al/ha, 14 days after application. In short, it runs like this: as §6
Data set [18] deals with large crabgrass (Digitaria sanguinalis, DIGSA). The data set is described as above. Particulars: 1000 g al/ha, 14 days after application. In short, it runs like this: as §6
In data set [19] the test system is redroot pigweed (Amaranthus retroflexus, AMARE). The data set is described as above. The settings on record: 1000 g al/ha, 14 days after application. The method, boiled down: as §6
Data set [20] has as its system sicklepod (Cassia obtusifolia, CASOB). The description is as above. Particulars: 1000 g al/ha, 14 days after application. The method, boiled down: as §6
For data set [21], the system named is velvetleaf (Abutilon theophrasti, ABUTH). Described as above. Particulars: 1000 g al/ha, 14 days after application. The method, boiled down:
as §6

Data set [22] relates to field corn (Zea mays L., var. Dekalb 535, CORN). Description: Post-emerge greenhouse test, crop damage rating. Particulars: 1000 g al/ha, 14 days after application. In short, it runs like this: as §6
The subject of data set [23] is upland rice (Oryza sp., var.Tebonnet, RICE). The data set is described as follows: Post-emerge greenhouse test, crop damage rating. The settings on record: 1000 g al/ha, 14 days after application. In short, it runs like this: as §6
In data set [24] the test system is soybean (Glycine max L., var. Pella 86, SOY). Description: Post-emerge greenhouse test, crop damage rating. The settings on record: 1000 g al/ha, 14 days after application. In short, it runs like this:
as §6

Each structure is given as a SMILES string.

Take `Nc1ccc(Oc2cc(-n3c(=O)cc4n(c3=O)CCC4)c(F)cc2Cl)cc1` [Compound 5-3]: the “phytotoxicity rating SORHA” value in data set [1] amounted to 40. Besides, the “phytotoxicity rating ECHCG” value in [2] was found to be 0. In addition, in data set [3], the “phytotoxicity rating SETVI” value is recorded as 20. In data set [4], the “phytotoxicity rating IPOHE” value was 0. The “phytotoxicity rating CHEAL” value in data set [5] is 0. Moreover, the “phytotoxicity rating DIGSA” value in data set [6] was 70. In [7], the “phytotoxicity rating AMARE” value worked out at 100. Moreover, the “phytotoxicity rating CASOB” value in [8] was 10. For the same compound, the “phytotoxicity rating ABUTH” value in data set [9] is 99. Further, the “crop damage rating CORN” value in data set [10] was 0. For the same compound, the “crop damage rating RICE” value in data set [11] is on record as 20. The “crop damage rating SOY” value in data set [12] is on record as 40. In addition, the “SORHA phytotoxicity rating (0-100)” value in data set [13] was found to be 0. Moreover, the “ECHCG phytotoxicity rating (0-100)” value in data set [14] is given as 0. In addition, the “SETVI phytotoxicity rating (0-100)” value in data set [15] is recorded as 0. The “IPOHE phytotoxicity rating (0-100)” value in data set [16] stood at 0. Besides, in data set [17], the “CHEAL phytotoxicity rating (0-100)” value worked out at 0. Also, in data set [18], the “DIGSA phytotoxicity rating (0-100)” value was found to be 0. The “AMARE phytotoxicity rating (0-100)” value in data set [19] was determined as 0. Further, in data set [20], the “CASOB phytotoxicity rating (0-100)” value was determined as 0. Also, the “ABUTH phytotoxicity rating (0-100)” value in data set [21] came out at 0. In addition, the “CORN crop damage rating (0-100)” value in data set [22] amounted to 0. In data set [23], the “RICE crop damage rating (0-100)” value was 0. Moreover, in data set [24], the “SOY crop damage rating (0-100)” value amounted to 0.
